Assay results from patent publication US8609587B2, “Synergistic herbicidal compositions containing propyzamide and aminopyralid” (Dow AgroSciences, LLC., priority 2010, dated 2013).

How the values were obtained:
Assay type in all cases: in vivo
[1] = tested on: Alopecurus myosuroides Huds. (blackgrass); test: Field trial in winter oilseed rape, visual weed control, ALOMY; conditions: 93 to 200 Days after Application
Experimental: (§1) Field trials were conducted in winter oilseed rape crop using small plot research methodology. The oilseed rape crop was grown using normal cultural practices for the respective area of the trials, using varieties, fertilization and maintenance to ensure normal growth of the crop and the weeds. Plot size was 2 meters (m) wide by 10 m long with 4 replicates by treatment. All treatments were applied preemergence to early postemergence to the weeds using a compressed air backpack sprayer delivering 200 liters per hectare (L/ha) spray volume. Commercially available product of propyzamide/pronamide was mixed with a formulation of aminopyralid potassium at appropriately formulated product rates to achieve the desired rates based on a unit area of application (hectare) to achieve the desired rates as shown. Treatments consisted of propyzamide applied alone, as well as aminopyralid applied alone, and in combination, to measure herbicidal weed control and any synergistic interactions. Treatments were rated at different intervals from treatment to time of evaluation up to the following year when the crop starts to grow again in the spring. The weed efficacy was compared to the untreated control plants. Visual weed control was scored on a scale of 0 to 100 percent where 0 corresponds to no injury and 100 corresponds to complete kill. Colby's equation was used to determine the herbicidal effects expected from the mixtures (Colby, S. R. […] Calculation of the synergistic and antagonistic response of herbicide combinations.). The following equation was used to calculate the expected activity of mixtures containing two active ingredients, A and B: […] A=observed efficacy of active ingredient A at the same concentration as used in the mixture; B=observed efficacy of active ingredient B at the same concentration as used in the mixture.

[2] = tested on: Matricaria spp L. (chamomile species); test: Field trial in winter oilseed rape, visual weed control, MATSS; conditions: 93 to 188 Days after Application
Experimental: (§2) Field trials were conducted in winter oilseed rape crop using small plot research methodology. The oilseed rape crop was grown using normal cultural practices for the respective area of the trials, using varieties, fertilization and maintenance to ensure normal growth of the crop and the weeds. Plot size was 2 meters (m) wide by 10 m long with 4 replicates by treatment. All treatments were applied preemergence to early postemergence to the weeds using a compressed air backpack sprayer delivering 200 liters per hectare (L/ha) spray volume. Commercially available product of propyzamide/pronamide was mixed with a formulation of aminopyralid potassium at appropriately formulated product rates to achieve the desired rates based on a unit area of application (hectare) to achieve the desired rates as shown. Treatments consisted of propyzamide applied alone, as well as aminopyralid applied alone, and in combination, to measure herbicidal weed control and any synergistic interactions. Treatments were rated at different intervals from treatment to time of evaluation up to the following year when the crop starts to grow again in the spring. The weed efficacy was compared to the untreated control plants. Visual weed control was scored on a scale of 0 to 100 percent where 0 corresponds to no injury and 100 corresponds to complete kill. […]

[3] = tested on: Poa annua L. (annual bluegrass); test: Field trial in winter oilseed rape, visual weed control, POANN; conditions: Great Britain, 93 to 200 Days after Application
Experimental: as §1

[4] = tested on: Papaver rhoeas L. (corn poppy); test: Field trial in winter oilseed rape, visual weed control, PAPRH; conditions: for % Control PAPRH (1) Ob: France, 112 to 188 Days after Application; for % Control PAPRH (2) Ob: Great Britain
Experimental: as §1

[5] = tested on: Viola arvensis Murr. (field violet); test: Field trial in winter oilseed rape, visual weed control, VIOAR; conditions: 112 to 188 Days after Application
Experimental: as §1

[6] = tested on: Brassica napus L. ssp. Napus (winter oil seed rape); test: Field trial, crop tolerance (crop injury) of winter oilseed rape, BRSNW; conditions: 167 Days after Application
Experimental: as §1

[7] = tested on: Matricaria recutita L. (wild chamomile); test: Field trial in winter oilseed rape, visual weed control, MATCH; conditions: 112 to 188 Days after Application
Experimental: as §2

Nc1cc(Cl)nc(C(=O)O)c1Cl [Aminopyralid, 4-amino-3,6-dichloro-2-pyridinecarboxylic acid]
% Control ALOMY Ob ([1]; aminopyralid 6 g ae/ha alone): 0%
% Control ALOMY Ob ([1]; aminopyralid 8 g ae/ha alone): 0%
% Control MATSS Ob ([2]; aminopyralid 10 g ae/ha alone): 48%
% Control POANN (1) Ob ([3]; aminopyralid 6 g ae/ha alone): 0%
% Control POANN (2) Ob ([3]; aminopyralid 6 g ae/ha alone): 0%
% Control POANN (1) Ob ([3]; aminopyralid 8 g ae/ha alone): 0%
% Control POANN (2) Ob ([3]; aminopyralid 8 g ae/ha alone): 0%
% Control PAPRH (1) Ob ([4]; aminopyralid 6 g ae/ha alone): 48%
% Control PAPRH (1) Ob ([4]; aminopyralid 8 g ae/ha alone): 68%
% Control PAPRH (2) Ob ([4]; aminopyralid 6 g ae/ha alone, 93 to 188 Days after Application (Table 2)): 48%
% Control PAPRH (2) Ob ([4]; aminopyralid 6 g ae/ha alone, 112 to 188 Days after Application (Table 1)): 0%
% Control PAPRH (2) Ob ([4]; aminopyralid 8 g ae/ha alone, 93 to 188 Days after Application (Table 2)): 68%
% Control PAPRH (2) Ob ([4]; aminopyralid 8 g ae/ha alone, 112 to 188 Days after Application (Table 1)): 75%
% Control VIOAR Ob ([5]; aminopyralid 6 g ae/ha alone): 0%
% Control VIOAR Ob ([5]; aminopyralid 8 g ae/ha alone): 0%
% Crop Injury BRSNW Ob ([6]; aminopyralid 6 g ae/ha alone): 23%
% Crop Injury BRSNW Ob ([6]; aminopyralid 8 g ae/ha alone): 22%
% Control MATCH Ob ([7]; aminopyralid 6 g ae/ha alone): 80%

C#CC(C)(C)NC(=O)c1cc(Cl)cc(Cl)c1 [Propyzamide, 3,5-dichloro-N-(1,1-dimethylpropynyl)benzamide]
% Control ALOMY Ob ([1]; propyzamide 750 g ai/ha alone): 75%
% Control MATSS Ob ([2]; propyzamide 750 g ai/ha alone): 7%
% Control POANN (1) Ob ([3]; propyzamide 750 g ai/ha alone): 22%
% Control POANN (2) Ob ([3]; propyzamide 750 g ai/ha alone): 22%
% Control POANN (1) Ob ([3]; propyzamide 840 g ai/ha alone): 22%
% Control PAPRH (1) Ob ([4]; propyzamide 750 g ai/ha alone): 18%
% Control PAPRH (2) Ob ([4]; propyzamide 750 g ai/ha alone, 112 to 188 Days after Application (Table 1)): 0%
% Control PAPRH (2) Ob ([4]; propyzamide 840 g ai/ha alone, 93 to 188 Days after Application (Table 2)): 11%
% Control VIOAR Ob ([5]; propyzamide 750 g ai/ha alone): 27%
% Crop Injury BRSNW Ob ([6]; propyzamide 750 g ai/ha alone): 0%
% Crop Injury BRSNW Ob ([6]; propyzamide 840 g ai/ha alone): 2%
% Control MATCH Ob ([7]; propyzamide 750 g ai/ha alone): 0%
